Measurements as given in US7883846B2, “Heterologous stimulus-gated ion channels and methods of using same” (priority 2002, dated 2011).
Blank lines part the entries; values can stand above or below the molecule they belong to.

Key:
rat P2X2 = assay: Pharmacological stimulation of transfected hippocampal neurons, whole-cell patch clamp (P2X2); assay type: cell-based; conditions: 50 μM ATP, 1-ml bolus, whole-cell current clamp, 50 μM AP-5 plus 10 μM CNQX
Experimental: (§1) Three plasmid species were prepared, each species containing a stimulus-gated ion channel (rat TRPV1, rat TRPM8 or rat P2X2) under the control of the CMV promoter in pCI-fluor, a derivative of the mammalian expression vector pCI-neo (Promega). To create pCI-fluor, the aminoglycoside phosphotransferase coding sequence of pCI-neo was replaced with that of EGFP bearing a 20-amino acid N-terminal GAP43 tag (Zemelman, Lee et al. 2002). Rat TRPV1 and rat TRPM8 were expressed as monomers; rat P2X2 subunits were linked into covalent trimers via tandem repeats of the tripeptide -Ser-Gly-Gly-.
Hippocampal neurons, obtained from E19 rats and grown in dissociated cultures, were exposed to 4.2 μg cm^−2 of calcium phosphate-precipitated plasmid DNA as described in Example 1 (pH 7.08) for 20 min to allow plasmid uptake. Transfections were performed on day 8 after plating; immunocytochemical analyses and electrophysiological recordings on days 6-10 after transfection. […]
(§2) Transfected neurons in cultures and infected neurons in brain slices were identified by GAP43-EGFP fluorescence and recorded in the whole-cell patch-clamp configuration. […] Membrane potentials and transmembrane currents were recorded with an Axoclamp-2B amplifier (Axon Instruments) in bridge and continuous single-electrode voltage-clamp mode, respectively, and digitized at 5 kHz without filtering (Digidata 1200, Axon Instruments). […]

[1] = tested on: hippocampal neurons lacking the cognate exogenous receptor; assay: Stimulation of hippocampal neurons lacking the cognate exogenous receptor / untransfected neurons; assay type: cell-based, rat; conditions: 50 nM capsaicin, 100 μM menthol, 50 μM ATP; off-diagonal receptor-agonist combinations
TRPV1 = target: T1, TRPV1 (Rattus norvegicus, UniProt O35433); assay type: cell-based
T1 construct: expressed in transfected cells; host or cells: dissociated hippocampal neurons from E19 rats, calcium phosphate transfection of pCI-fluor plasmid

[2] = target: T2, TRPV1 expressed ectopically in nociceptor neurons of C. elegans (Rattus norvegicus, UniProt O35433); conditions: wild-type animals lack the behavior; cited from earlier work
T2 construct: host or cells: transgenic C. elegans nociceptor neurons

rat TRPV1 = target: T3, rat TRPV1 (Rattus norvegicus, UniProt O35433); assay: Pharmacological stimulation of transfected hippocampal neurons, whole-cell patch clamp (TRPV1); assay type: cell-based
T3 construct: expressed in transfected cells; host or cells: dissociated hippocampal neurons from E19 rats, calcium phosphate transfection of pCI-fluor plasmid
Experimental: as §1, with “-Ser-Gly-Gly-. […]” for “-Ser-Gly-Gly-.”
as §2
(§3) To determine dose-response relationships, the peak amplitudes as well as the integrated charges carried by depolarizing currents at different agonist concentrations were measured under whole-cell voltage clamp, at a constant holding potential of −65 mV.

rat TRPM8 = target: T4, rat TRPM8 (Rattus norvegicus, UniProt Q8R455); assay: Pharmacological stimulation of transfected hippocampal neurons, whole-cell patch clamp (TRPM8); assay type: cell-based
T4 construct: expressed in transfected cells; host or cells: dissociated hippocampal neurons from E19 rats, calcium phosphate transfection of pCI-fluor plasmid
Experimental: as §1, with “-Ser-Gly-Gly-. […]” for “-Ser-Gly-Gly-.”
as §2, §3

P2X2 = assay: Photostimulation of P2X2-expressing neurons with caged agonist; assay type: cell-based, rat
[3] = 1 mM DMNPE-ATP, 1-s light pulse, mean±s.d., n=16

Sequence of P2X2 (P49653 whole entry): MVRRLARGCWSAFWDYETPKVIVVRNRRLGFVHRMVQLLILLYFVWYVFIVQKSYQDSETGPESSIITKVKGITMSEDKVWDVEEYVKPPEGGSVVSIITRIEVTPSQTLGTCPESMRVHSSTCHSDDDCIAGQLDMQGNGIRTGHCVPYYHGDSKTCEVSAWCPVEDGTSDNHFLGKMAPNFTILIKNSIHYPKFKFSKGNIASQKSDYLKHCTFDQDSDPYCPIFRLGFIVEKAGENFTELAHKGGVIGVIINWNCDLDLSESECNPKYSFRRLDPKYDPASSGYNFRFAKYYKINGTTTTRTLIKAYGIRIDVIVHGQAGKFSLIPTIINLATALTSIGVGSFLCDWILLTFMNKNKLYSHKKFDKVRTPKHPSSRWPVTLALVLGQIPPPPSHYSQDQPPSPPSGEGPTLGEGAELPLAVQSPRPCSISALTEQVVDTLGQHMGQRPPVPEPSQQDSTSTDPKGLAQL
T1 sequence (O35433 whole entry): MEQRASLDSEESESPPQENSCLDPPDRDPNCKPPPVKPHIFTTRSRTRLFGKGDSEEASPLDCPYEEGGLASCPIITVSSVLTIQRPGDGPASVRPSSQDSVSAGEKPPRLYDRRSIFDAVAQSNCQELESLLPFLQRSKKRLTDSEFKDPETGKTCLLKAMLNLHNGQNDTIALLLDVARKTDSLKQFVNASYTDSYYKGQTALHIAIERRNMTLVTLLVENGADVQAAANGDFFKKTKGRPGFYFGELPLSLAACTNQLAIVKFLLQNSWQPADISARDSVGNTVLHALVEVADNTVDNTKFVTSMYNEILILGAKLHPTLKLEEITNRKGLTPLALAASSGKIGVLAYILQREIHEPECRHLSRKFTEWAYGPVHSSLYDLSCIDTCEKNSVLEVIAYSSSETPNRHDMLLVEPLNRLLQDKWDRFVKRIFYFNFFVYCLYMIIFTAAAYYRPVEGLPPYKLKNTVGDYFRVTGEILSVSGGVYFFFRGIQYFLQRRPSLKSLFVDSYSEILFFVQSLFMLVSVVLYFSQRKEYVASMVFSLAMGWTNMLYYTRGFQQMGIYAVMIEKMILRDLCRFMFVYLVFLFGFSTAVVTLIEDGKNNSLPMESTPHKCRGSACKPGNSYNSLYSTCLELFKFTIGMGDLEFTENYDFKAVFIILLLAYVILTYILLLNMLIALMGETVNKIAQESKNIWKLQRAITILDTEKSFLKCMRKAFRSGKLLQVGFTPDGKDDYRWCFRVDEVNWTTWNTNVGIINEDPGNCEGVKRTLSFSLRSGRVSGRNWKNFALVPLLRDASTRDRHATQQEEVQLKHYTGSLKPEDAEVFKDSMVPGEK
T4 sequence (Q8R455 whole entry): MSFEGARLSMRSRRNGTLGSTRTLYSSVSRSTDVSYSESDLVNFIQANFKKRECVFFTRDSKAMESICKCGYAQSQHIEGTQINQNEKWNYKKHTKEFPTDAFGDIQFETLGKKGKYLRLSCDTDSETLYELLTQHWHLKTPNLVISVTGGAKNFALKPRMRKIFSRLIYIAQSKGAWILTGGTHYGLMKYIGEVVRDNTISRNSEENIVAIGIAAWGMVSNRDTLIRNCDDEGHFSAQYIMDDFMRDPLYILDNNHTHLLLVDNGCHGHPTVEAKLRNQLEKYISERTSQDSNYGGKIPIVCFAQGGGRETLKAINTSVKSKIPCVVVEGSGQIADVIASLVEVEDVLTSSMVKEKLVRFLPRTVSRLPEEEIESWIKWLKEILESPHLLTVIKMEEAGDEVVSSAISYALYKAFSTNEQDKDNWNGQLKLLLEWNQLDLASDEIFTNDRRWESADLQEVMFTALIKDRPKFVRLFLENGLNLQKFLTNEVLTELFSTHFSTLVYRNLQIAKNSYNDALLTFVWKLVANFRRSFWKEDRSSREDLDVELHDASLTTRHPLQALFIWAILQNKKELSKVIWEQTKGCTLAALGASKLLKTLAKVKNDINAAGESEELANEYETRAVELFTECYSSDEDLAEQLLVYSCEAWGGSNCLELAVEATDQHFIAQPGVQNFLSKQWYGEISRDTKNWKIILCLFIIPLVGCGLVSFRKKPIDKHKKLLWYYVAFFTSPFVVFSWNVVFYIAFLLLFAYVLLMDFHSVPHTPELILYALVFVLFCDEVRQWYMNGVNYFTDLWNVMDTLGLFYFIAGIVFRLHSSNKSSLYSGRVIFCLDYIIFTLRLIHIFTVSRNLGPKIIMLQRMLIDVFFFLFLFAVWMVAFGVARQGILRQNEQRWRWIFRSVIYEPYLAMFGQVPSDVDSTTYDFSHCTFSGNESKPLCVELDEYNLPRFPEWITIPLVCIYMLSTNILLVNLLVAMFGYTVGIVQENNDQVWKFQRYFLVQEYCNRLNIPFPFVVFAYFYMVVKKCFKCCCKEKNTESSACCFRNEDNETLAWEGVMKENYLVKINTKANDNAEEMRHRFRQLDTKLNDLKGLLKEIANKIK
T3 sequence (O35433 whole entry): as the sequence (O35433 whole entry) above
T2 sequence (O35433 whole entry): as above

Molecule: Nc1ncnc2c1ncn2[C@@H]1O[C@H](COP(=O)(O)OP(=O)(O)OP(=O)(O)O)[C@@H](O)[C@H]1O [ATP]
response of membrane potential to a bolus of agonist (rat P2X2): depolarization, spiking, and repolarization | stimulation of hippocampal neurons lacking the cognate exogenous receptor [1]: None of the three agonists, including ATP, was able to stimulate

Molecule: COc1cc(COC(=O)Oc2ccc(CNC(=O)CCCC/C=C/C(C)C)cc2OC)c([N+](=O)[O-])cc1OC [DMNB-capsaicin]
action potential frequency after light pulse (TRPV1): 15-40 Hz | biological activity due to chemical or enzymatic decomposition of the caged compound (TRPV1): No trace of biological activity | duration of window of activity (TRPV1): 2,651±383 ms | lag of onset of activity behind optical stimulus (TRPV1): 5,035±2,061 ms | membrane potentials and transmembrane conductances in presence of caged ligand without light (TRPV1): unaffected | response on repeated photostimulation of the same neuron (TRPV1): did not attenuate

Molecule: COc1cc(CNC(=O)CCCC/C=C/C(C)C)ccc1O [capsaicin]
behavior elicited in C. elegans [2]: avoidance behaviors | stimulation of hippocampal neurons lacking the cognate exogenous receptor [1]: None of the three agonists, including ATP, was able to stimulate | response of membrane potential to a bolus of agonist (rat TRPV1; 50 nM capsaicin, 1-ml bolus, whole-cell current clamp, 50 μM AP-5 plus 10 μM CNQX): depolarization, spiking, and repolarization | peak spike rate (firing frequency) (rat TRPV1; current clamp, sliding 200-ms windows, increasing agonist concentration, 382 agonist applications to 60 neurons): 40 Hz

Molecule: CC(C)[C@@H]1CC[C@@H](C)C[C@H]1O [menthol, [1R,2S,5R]-5-methyl-2-[1-methylethyl]cyclo-hexanol]
stimulation of hippocampal neurons lacking the cognate exogenous receptor [1]: None of the three agonists, including ATP, was able to stimulate | response of membrane potential to a bolus of agonist (rat TRPM8; 100 μM menthol, 1-ml bolus, whole-cell current clamp, 50 μM AP-5 plus 10 μM CNQX): depolarization, spiking, and repolarization | EC50 (rat TRPM8; whole-cell voltage clamp, holding potential −65 mV, results not shown, read-out: half-maximal response): 150 µM

biological activity due to chemical or enzymatic decomposition of the caged compound (P2X2; recordings lasting for >30 min, 1 mM): No trace of biological activity
Molecule: P3-(1-(4,5-dimethoxy-2-nitrophenyl)ethyl) (DMNPE) ester of ATP [DMNPE-ATP]
duration of window of activity (P2X2; [3]): 2,456±1,273 ms | lag period between optical stimulus and window of activity (P2X2; [3]): 1,136±96 ms | membrane potentials and transmembrane conductances in presence of caged ligand without light (P2X2; 1 mM DMNPE-ATP, whole-cell current- or voltage-clamp): unaffected
